What was measured:
bromodomain = experiment: Bromodomain cell assays of Example 40 (at least one of them); assay type: cell-based; conditions: in at least one of the bromodomain cell assays described in Example 40
Summary of the method: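 Growth inhibition: 3000 MV-4-11, MOLM-13, MM.1S or neuroblastoma cells/well got an 8-point 1:3 series from 10 μM top (0.2% DMSO) for 72 h, then CellTiter-Glo luminescence. Myc reporter: MV-4-11 with E-box firefly luciferase, 24 h exposure, One-Glo luminescence plus CellTiter-Fluo cell count. pIC50 from four-parameter fit.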

BRD4-BD1 (44-164) = target: T1, BRD4-BD1 (44-164) (Homo sapiens, UniProt O60885); experiment: Alphascreen binding assay BRD4-BD1 (BRD4 biochemical inhibitory activity); conditions: read-out: Biochemical activity (IC50 μM) BRD4(1) H4
T1 construct: BRD4-BD1 (44-164); made in house; host or cells: E. coli BL21-CodonPlus (DE3)
Description: Binding of compounds of formula (I) with bromodomain 2, 3 4 was assessed using Alphascreen binding assay. The inhibition of the interaction between bromodomain and its acetylated target protein (Filippakopoulos P et al. 2012) was measured quantitatively using recombinant BRD proteins, an acetylated Histone 4 peptide and AlphaScreen™ technology. In absence of inhibition the BRD protein bound to AlphaScreen™ nickel chelate acceptor beads can interact with the acetylated Histone 4 peptide which is immobilized by the AlphaScreen™ Streptavidin coated beads. This interaction brings donor and acceptor beads in proximity. The close proximity allows the singlet oxygen produced by laser excitation of the donor beads to reach the acceptor beads and generate a luminescence signal. BRD inhibitors result in a decrease in the proximity signal through an inhibition of the BRD—acetylated peptide interaction.
Recombinant human bromodomains containing the N-terminal bromodomain (BRD2-BD1 (71-194), BRD3-BD1 (24-144) and BRD4-BD1 (44-164)) or dual bromodomains (BRD4-BD12 (1-477), BRD4-BD12 (1-472)) were prepared and purified as described in protein expression and purification session. The peptide is human Histone H41-21K5AcK8AcK12AcK16Ac-Biotin (Anaspec Calif., USA).
Protocol for BRD2, BRD3 and BRD4 assay: All components are prepared in buffer composed of 50 mM HEPES pH 7.5, 100 mM NaCl, 0.01% bovine serum albumin (“BSA”), 0.01% Triton X-100, 2 mM dithiothreitol (“DTT”). 7 μL of Bromodomain protein and 7 μL of peptide are added to wells containing 1 μL of various concentrations of test compounds of formula (I) or DMSO vehicle in an Alphaplate (PerkinElmer Ga., USA) and incubated for 1 hour at room temperature. 4 μL donor and acceptor bead mixture is then added with final concentrations of 7.5 μg/ml. 30 minutes after bead addition, Alpha signal is read on the Envision spectrometer ([…]Ex 680 nm, […]Em 520-620 nm). Final concentrations of bromodomain proteins and peptide are as shown below.
All data was normalized to the mean of 16 high and 16 low control wells on each plate. A four parameter curve fit of the following formula was then applied: Y=a+(b−a)/(1+(x/c)^d) Where ‘a’ is the minimum, ‘b’ is the maximum, ‘c’ is the pIC50 and ‘d’ is the Hill slope. Protein Expression and Purification
Recombinant human bromodomains containing the N-terminal bromodomain (BRD2-BD1 (71-194), BRD3-BD1 (24-144) and BRD4-BD1 (44-164)) or dual bromodomains (BRD4-BD12 (1-477), BRD4-BD12 (1-472)) were expressed in E. coli cells (in a modified pET vector) with an N-terminal six-His tag and purified using a combination of both IMAC (Ni-affinity) and size exclusion chromatography steps.
Recombinant BRD proteins were expressed using the E. coli strain BL21-CodonPlus (DE3) (Agilent Technologies Calif., USA). Cells were grown in Terrific Broth (TB) media to an OD600 of 1.2 at 37° C. at which temperature was reduced to 25° C., protein was induced with 1.0 mM ispropyl-β-D-thiogalactopyranoside (“IPTG”) for 12-18 hours and harvested by centrifugation at 8000×g for 20 minutes. Cells were re-suspended in 0.1M K2PO4 pH 8.0, 250 mM NaCl, 10% Glycerol, 0.75% NP-40, 25 mM Imidazole, 5 mM beta-mercaptoethanol (“BME”) with 0.2 mg/ml Lysosyme, 2.0 mM phenylmethanesulfonyl fluoride (“PMSF”), 25 μg/ml DNAse I, incubated on ice for 30 minutes and lyzed with a cell disruptor (MicroFluidics Mass., USA). The lysate was clarified by centrifugation at 20,000×g for 2 hours. The protein was captured with Ni-NTA resin (Life Technologies, USA). Contaminating proteins were washed off with 25 mM Tris-HCl pH 8.3, 250 mM NaCl, 12% Glycerol and 50 mM Imidazole. Following 3× wash steps, protein was eluted step wise using a 50 mM HEPES pH 7.5, 500 mM NaCl and 400 mM Imidazole. The protein was further purified using Gel Filtration column 26/600 Superdex 200 (GE Biosciences NJ, USA) in 50 mM HEPES pH 7.5, 250 mM NaCl. The protein was aliquoted and flash-frozen in liquid Nitrogen. […]

| SMILES | IC50 (bromodomain) [µM] | IC50 (BRD4-BD1 (44-164)) [µM] |
| --- | --- | --- |
| Cc1noc(C)c1-c1cnc2[nH]c(-c3ccccc3)cc2c1 [P-0001, 3,5-dimethyl-4-(2-phenyl-1H-pyrrolo[2,3-b]pyridin-5-yl)isoxazole] | < 10 | 1 to 10 |
| Cc1noc(C)c1-c1ccc2[nH]ccc2c1 [P-0002, 4-(1H-indol-5-yl)-3,5-dimethyl-isoxazole] | < 10 | 1 to 10 |
| Cc1noc(C)c1-c1cnc2[nH]cc(C(=O)c3cccnc3)c2c1 [P-0004, [5-(3,5-dimethylisoxazol-4-yl)-1H-pyrrolo[2,3-b]pyridin-3-yl]-(3-pyridyl)methanone] | < 10 | 1 to 10 |
| Cc1noc(C)c1-c1cnc2[nH]c(C)c(C(=O)c3cccnc3)c2c1 [P-0006, [5-(3,5-dimethylisoxazol-4-yl)-2-methyl-1H-pyrrolo [2,3-b]pyridin-3-yl]-(3-pyridyl)methanone] | < 10 | 1 to 10 |
| Cc1noc(C)c1-c1cnc2[nH]c(-c3ccc(F)cc3)c(C(=O)c3cccnc3)c2c1 [P-0008, [5-(3,5-dimethylisoxazol-4-yl)-2-(4-fluorophenyl)-1H-pyrrolo[2,3-b]pyridin-3-yl]-(3-pyridyl)methanone] | < 10 | 1 to 10 |
| Cc1noc(C)c1-c1ccc2[nH]cc(CCN3CCCC3)c2c1 [P-0010, 3,5-dimethyl-4-[3-(2-pyrrolidin-1-ylethyl)-1H-indol-5-yl]isoxazole] | < 10 | 1 to 10 |
| Cc1noc(C)c1-c1cnc2[nH]cc(Cc3ccc(C(F)(F)F)cc3)c2c1 [P-0015, 3,5-dimethyl-4-[3-[[4-(trifluoromethyl)phenyl]methyl]-1H-pyrrolo[2,3-b]pyridin-5-yl]isoxazole] | < 10 | 1 to 10 |
| Cc1noc(C)c1-c1cnc2[nH]cc(C(=O)c3ccc(C(F)(F)F)cc3)c2c1 [P-0016, [5-(3,5-dimethylisoxazol-4-yl)-1H-pyrrolo[2,3-b]pyridin-3-yl]-[4-(trifluoromethyl)phenyl]methanone] | < 10 | 1 to 10 |
| Cc1noc(C)c1-c1cnc2cc[nH]c2c1 [P-0018, 3,5-dimethyl-4-(1H-pyrrolo[3,2-b]pyridin-6-yl)isoxazole] | < 10 | 1 to 10 |
| CCc1[nH]c2ncc(-c3c(C)noc3C)cc2c1Cc1cccc(OC(F)(F)F)c1 [P-0050, 4-[2-ethyl-3-[[3-(trifluoromethoxy)phenyl]methyl]-1H-pyrrolo[2,3-b]pyridin-5-yl]-3,5-dimethyl-isoxazole] | < 10 | 10 to 200 |
| COc1ccccc1S(=O)(=O)n1ccc2ncc(-c3c(C)noc3C)cc21 [P-0065, 4-[1-(2-methoxyphenyl)sulfonylpyrrolo[3,2-b]pyridin-6-yl]-3,5-dimethyl-isoxazole] | < 10 | 1 to 10 |
| Cc1noc(C)c1-c1cnc2ccn(S(=O)(=O)N3CCCC3)c2c1 [P-0068, 3,5-dimethyl-4-(1-pyrrolidin-1-ylsulfonylpyrrolo [3,2-b]pyridin-6-yl)isoxazole] | < 10 | 1 to 10 |
| COC(c1c[nH]c2cc(-c3c(C)noc3C)cnc12)C1CC1 (stereo not shown) [P-0069] | < 10 | 1 to 10 |
| Cc1noc(C)c1-c1cnc2c(CC3CC3)c[nH]c2c1 [P-0070, 4-[3-(cyclopropylmethyl)-1H-pyrrolo[3,2-b]pyridin-6-yl]-3,5-dimethyl-isoxazole] | < 10 | 1 to 10 |
| Cc1noc(C)c1-c1cnc2c(I)c[nH]c2c1 [P-0072, 4-(3-iodo-1H-pyrrolo[3,2-b]pyridin-6-yl)-3,5-dimethyl-isoxazole] | < 10 | 1 to 10 |
| Cc1noc(C)c1-c1cnc2c(CC3CC3)cn(S(=O)(=O)CCC(F)(F)F)c2c1 [P-0074, 4-[3-(cyclopropylmethyl)-1-(3,3,3-trifluoropropylsulfonyl)pyrrolo[3,2-b]pyridin-6-yl]-3,5-dimethyl-isoxazole] | < 10 | 1 to 10 |
| Cc1noc(C)c1-c1cnc2c(C#N)cn(S(=O)(=O)c3ccccc3)c2c1 [P-0081, 1-(benzenesulfonyl)-6-(3,5-dimethylisoxazol-4-yl)pyrrolo[3,2-b]pyridine-3-carbonitrile] | < 10 | ≤ 1 |
| Cc1noc(C)c1-c1cnc2c(C#N)c[nH]c2c1 [P-0082, 6-(3,5-dimethylisoxazol-4-yl)-1H-pyrrolo[3,2-b]pyridine-3-carbonitrile] | < 10 | 1 to 10 |
| Cc1noc(C)c1-c1cnc2[nH]cc(I)c2c1 [P-0086, 4-(3-iodo-1H-pyrrolo[2,3-b]pyridin-5-yl)-3,5-dimethyl-isoxazole] | < 10 | 1 to 10 |
| Cc1noc(C)c1-c1cnc2c(c1)c(I)cn2S(=O)(=O)c1ccccc1 [P-0087, 4-[1-(benzenesulfonyl)-3-iodo-pyrrolo[2,3-b]pyridin-5-yl]-3,5-dimethyl-isoxazole] | < 10 | 1 to 10 |
| [2H]C([2H])([2H])n1cc(I)c2cc(-c3c(C)noc3C)cnc21 [P-0088, 4-[3-iodo-1-(trideuteriomethyl)pyrrolo[2,3-b]pyridin-5-yl]-3,5-dimethyl-isoxazole] | < 10 | 1 to 10 |
| Cc1noc(C)c1-c1cnc2c(c1)c(C(O)C1CCS(=O)(=O)CC1)cn2S(=O)(=O)c1ccccc1 (stereo not shown) [P-0094, [1-(benzenesulfonyl)-5-(3,5-dimethylisoxazol-4-yl)pyrrolo[2,3-b]pyridin-3-yl]-(1,1-dioxothian-4-yl)methanol] | < 10 | 1 to 10 |
| Cc1noc(C)c1-c1cnc2c(c1)c(C(F)C1CCS(=O)(=O)CC1)cn2S(=O)(=O)c1ccccc1 (stereo not shown) [P-0095, 4-[[1-(benzenesulfonyl)-5-(3,5-dimethylisoxazol-4-yl)pyrrolo[2,3-b]pyridin-3-yl]-fluoro-methyl]thiane 1,1-dioxide] | < 10 | 1 to 10 |
| Cc1noc(C)c1-c1cnc2c(c1)c(CC1CCS(=O)(=O)CC1)cn2S(=O)(=O)c1ccccc1 [P-0096, 4-[[1-(benzenesulfonyl)-5-(3,5-dimethylisoxazol-4-yl)pyrrolo[2,3-b]pyridin-3-yl]methyl]thiane 1,1-dioxide] | < 10 | 1 to 10 |
| Cc1noc(C)c1-c1cnc2c(I)cn([Si](C(C)C)(C(C)C)C(C)C)c2c1 [P-0130, [6-(3,5-dimethylisoxazol-4-yl)-3-iodo-pyrrolo[3,2-b]pyridin-1-yl]-triisopropyl-silane] | < 10 | 1 to 10 |
| Cc1noc(C)c1-c1cnc2c(C(=O)O)cn(S(=O)(=O)c3ccccc3)c2c1 [P-0169, 1-(benzenesulfonyl)-6-(3,5-dimethylisoxazol-4-yl)pyrrolo[3,2-b]pyridine-3-carboxylic acid] | < 10 | ≤ 1 |

— patent US10501460B2, “Heterocyclic compounds and uses thereof” (Plexxikon Inc., priority 2013, dated 2019)
